# Patent US20210293825A1, “METHODS FOR PRECISION THERAPEUTIC TARGETING OF HUMAN CANCER CELL MOTILITY AND KITS THEREOF” (UNITED STATES GOVERNMENT AS REPRESENTED BY THE DEPARTMENT …, priority 2018, published 2021)
# Like-named read-outs stand apart in the source and are kept apart here.
# Key:
# [1] = Plasma KBU2046 concentration after dosing in chow; type: in vivo, athymic mice; settings: Balb/c athymic, mouse, oral
# Experimental: Cohorts of N=12 athymic mice bearing human PCa PC3-M cell orthotopic implants (a), or of N=5 non-tumor bearing athymic mice (b), were treated with KBU2046 incorporated into chow, and resultant lung metastasis (a) or plasma KBU2046 concentration (b) measured. Values are the mean±SEM. The relationship between dose and metastasis was evaluated by two-sided ANOVA (a). FIG. 2c a comprehensive characterization of KBU2046 pharmacokinetics. CD1 mice were dosed with 100 mg KBU2046/kg via oral gavage or intravenous injection (iv), and blood collected at the indicated time points (data from mice dosed at 25 mg/kg are in FIG. 12, and corroborate 100 mg/kg findings). For each route and time point, N=3 mice were sampled. Individual data points are the resultant plasma concentrations from individual mice, and are the mean of N=2 measurements. The dotted horizontal line denotes a concentration of 24 nM, which was the concentration of KBU2046 measured in the blood of mice whose metastasis were suppressed by 92% (a-b). […]
# KBU2046 Quantification and Pharmacokinetics. […]
# Plasma KBU2046 concentrations were measured in duplicate by liquid chromatography-tandem mass spectrometry after sample preparation by solid-phase extraction. […] The mass-to-charge ratios of the precursor-to-product ion reactions monitored were 243.5→125.1 for KBU2046 and 257.0→165.0 for the internal standard. […]
# [2] = Examination of organ function after a single intravenous dose; type: in vivo; settings: single IV dose 15, 75 or 125 mg/kg, day 8 and 14
# Experimental: Histologic examination of tissue. Organs of athymic male mice stained with H&E, Trichrome or Giemsa were microscopically examined by a mouse pathologist in a blinded fashion, and toxicity scored using an established semi-quantitative histological scoring system (Knodell, R. G. et al., Hepatology 1, 431-5 (1981)) (FIG. 14). The following clinical chemistry parameters were measured in blood of CD1 male and female mice by Charles River Research Animal Diagnostic Services: cholesterol, triglycerides, alanine aminotransferase (ALT), aspartate aminotransferase (AST), total bilirubin, glucose, phosphorus, total protein, calcium, blood urea nitrogen (BUN), creatinine, albumin, Na, K, Cl, white blood cells (with differential), red blood cells, hemoglobin, and platelets.
# For examination of organ function, studies used cohorts of 22-24 gm N=3 female and N=3 male (i.e., N=6 mice total per dose cohort) CD1 (ICR) mice (Charles River). […] On day 8 and 14, important organs were weighed, and the following parameters measured in blood: cholesterol, triglycerides, alanine aminotransferase (ALT), aspartate aminotransferase (AST), total bilirubin, glucose, phosphorus, total protein, calcium, blood urea nitrogen (BUN), creatinine, albumin, Na, K, Cl, white blood cells (with differential), red blood cells, hemoglobin, platelets.
structure (smiles),measurement,setting,value
"O=C1c2ccccc2OCC1c1ccc(F)cc1 (racemic) [KBU2046, (±)-3(4-fluorophenyl)chroman-4-one]",concentration at 35 days,"[1]; doses that decreased metastasis, read-out: plasma concentrations",1.1 to 24 nM
same,concentration at 35 days,[1]; read-out: concentration in blood of mice whose metastasis were suppressed by 92%,24 nM
same,organ weights and blood parameters,[2],No abnormal alterations in any of these parameters were observed
